Experiments:
[1] = molecular target: T1, recombinant human FLAP protein (Homo sapiens, UniProt P20292); test: FLAP binding assay (SPA, displacement of [125I]L-691,831); conditions: membranes of sf9 cells expressing recombinant human FLAP; [125I]L-691,831 probe; read-out: FLAP binding IC50
T1 construct: made in house; host or cells: Sf9 insect cells (100,000×g membrane pellet used)
T1 sequence (P20292 1-161): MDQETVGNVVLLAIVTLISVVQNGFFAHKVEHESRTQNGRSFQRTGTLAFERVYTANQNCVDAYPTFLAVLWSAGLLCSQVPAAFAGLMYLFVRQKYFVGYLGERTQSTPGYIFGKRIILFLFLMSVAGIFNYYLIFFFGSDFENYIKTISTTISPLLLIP
Outline: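 Membranes from sf9 cells expressing human FLAP in pH 7.5 Tris buffer (MgCl2, EDTA, PMSF). Non-specific binding defined with 10 μM cold L-691,831.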

[2] = tested on: synthesis of LTB4 in human whole blood; test: Human whole blood assay (inhibition of LTB4 synthesis, calcimycin stimulated); type: cell-based; conditions: heparinized human whole blood, calcimycin 20 μM, plasma LTB4
Outline: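 Readout: plasma LTB4 by antibody-based HTRF. Compound added to heparinized human whole blood, 15 min 37° C; calcimycin 20 μM final (PBS pH 7.4), 30 min 37° C; spun 1500×g 5 min, plasma taken.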

Row | SMILES | IC50 [1] [nM] | IC50 [2] [nM]
1 | CN(C)C(=O)Cn1cc(-c2nc([C@@](C)(c3ccc(-c4cnc(N)[nH]c4=O)cc3)C3CC3)no2)cn1 [Example 197, 2-[4-(3-{(R)-1-[4-(2-amino-6-oxo-1,6-dihydro-pyrimidin-5-yl)-phenyl]-1-cyclopropyl-ethyl}-[1,2,4]oxadiazol-5-yl)-pyrazol-1-yl]-N,N-dimethyl-acetamide] | 16 | > 5000
2 | CC(C)C(C)(c1ccc(-c2cnc(N)nc2)cc1)c1noc(N2CCNC(=O)C2)n1 (centres unmarked) [Example 199, 4-(3-{1-[4-(2-Amino-pyrimidin-5-yl)-phenyl]-1,2-dimethyl-propyl}-[1,2,4]oxadiazol-5-yl)-piperazin-2-one] | 32 | 690
3 | CC(C)C(C)(c1ccc(-c2cnc(N)nc2)cc1)c1noc(N2CC(O)C2)n1 (centres unmarked) [Example 200, 1-(3-{1-[4-(2-Amino-pyrimidin-5-yl)-phenyl]-1,2-dimethyl-propyl}-[1,2,4]oxadiazol-5-yl)-azetidin-3-ol] | 15 | 250
4 | CC(C)C(C)(c1ccc(-c2cnc(N)nc2)cc1)c1noc(N2CCN(C)C(=O)C2)n1 (centres unmarked) [Example 202, 4-(3-{1-[4-(2-Amino-pyrimidin-5-yl)-phenyl]-1,2-dimethyl-propyl}-[1,2,4]oxadiazol-5-yl)-1-methyl-piperazin-2-one] | 46 | 350
5 | CC(C)C(C)(c1ccc(-c2cnc(N)nc2)cc1)c1noc(N2CC(C)(O)C2)n1 (centres unmarked) [Example 203, 1-(3-{1-[4-(2-Amino-pyrimidin-5-yl)-phenyl]-1,2-dimethyl-propyl}-[1,2,4]oxadiazol-5-yl)-3-methyl-azetidin-3-ol] | 15 | 130
6 | CC(c1ccc(-c2cnc(N)nc2)cc1)(c1noc(N2CCCC2)n1)C1CC1 (centres unmarked) [Example 204, 5-{4-[1-Cyclopropyl-1-(5-pyrrolidin-1-yl-[1,2,4]oxadiazol-3-yl)-ethyl]-phenyl}-pyrimidin-2-ylamine] | 13 | 150
7 | CC(c1ccc(-c2cnc(N)nc2)cc1)(c1noc(-c2cncn2C2COC2)n1)C1CC1 (centres unmarked) [Example 206, 5-(4-{1-Cyclopropyl-1-[5-(3-oxetan-3-yl-3H-imidazol-4-yl)-[1,2,4]oxadiazol-3-yl]-ethyl}-phenyl)-pyrimidin-2-ylamine] | 23 | 310
8 | CC(c1ccc(-c2cnc(N)nc2)cc1)(c1noc(-c2cn(C3COC3)cn2)n1)C1CC1 (centres unmarked) [Example 207, 5-(4-{1-Cyclopropyl-1-[5-(1-oxetan-3-yl-1H-imidazol-4-yl)-[1,2,4]oxadiazol-3-yl]-ethyl}-phenyl)-pyrimidin-2-ylamine] | 92 | 700
9 | CC(C)C(C)(c1ccc(-c2cnc(N)nc2)cc1)c1noc(N2CCC(S(C)(=O)=O)CC2)n1 (centres unmarked) [Example 208, 5-(4-{1-[5-(4-Methanesulfonyl-piperidin-1-yl)-[1,2,4]oxadiazol-3-yl]-1,2-dimethyl-propyl}-phenyl)-pyrimidin-2-ylamine] | 13 | 250
10 | CC(C)C(C)(c1ccc(-c2cnc(N)nc2)cc1)c1noc(N2CCC(C(N)=O)CC2)n1 (centres unmarked) [Example 213, 1-(3-{1-[4-(2-Amino-pyrimidin-5-yl)-phenyl]-1,2-dimethyl-propyl}-[1,2,4]oxadiazol-5-yl)-piperidine-4-carboxylic acid amide] | 14 | 330
11 | CNC1CCN(c2nc(C(C)(c3ccc(-c4cnc(N)nc4)cc3)C(C)C)no2)CC1 (centres unmarked) [Example 217, 5-(4-{1,2-Dimethyl-1-[5-(4-methylamino-piperidin-1-yl)-[1,2,4]oxadiazol-3-yl]-propyl}-phenyl)-pyrimidin-2-ylamine] | 90 | 1200
12 | CC(C)C(C)(c1ccc(-c2cnc(N)nc2)cc1)c1noc(N2CCC(N(C)C)CC2)n1 (centres unmarked) [Example 218] | 130 | 920
13 | CC(C)C(C)(c1ccc(-c2cnc(N)nc2)cc1)c1noc(N2CCC(C(=O)O)CC2)n1 (centres unmarked) [Example 219, 1-(3-{1-[4-(2-Amino-pyrimidin-5-yl)-phenyl]-1,2-dimethyl-propyl}-[1,2,4]oxadiazol-5-yl)-piperidine-4-carboxylic acid] | 39 | > 5000
14 | CC(C)C(C)(c1ccc(-c2cnc(N)nc2)cc1)c1noc(N2CCC(N)CC2)n1 (centres unmarked) [Example 222, 5-(4-{1-[5-(4-Amino-piperidin-1-yl)-[1,2,4]oxadiazol-3-yl]-1,2-dimethyl-propyl}-phenyl)-pyrimidin-2-ylamine] | 130 | 1700
15 | CC(C)C(C)(c1ccc(-c2cnc(N)nc2)cc1)c1noc(CC(C)(C)O)n1 (centres unmarked) [Example 225, 1-(3-{1-[4-(2-Amino-pyrimidin-5-yl)-phenyl]-1,2-dimethyl-propyl}-[1,2,4]oxadiazol-5-yl)-2-methyl-propan-2-ol] | 16 | 350
16 | COCCOCc1nc(C(C)(c2ccc(-c3cnc(N)nc3)cc2)C(C)C)no1 (centres unmarked) [Example 229, 5-(4-{1-[5-(2-Methoxy-ethoxymethyl)-[1,2,4]oxadiazol-3-yl]-1,2-dimethyl-propyl}-phenyl)-pyrimidin-2-ylamine] | 99 | 550

The remaining compounds from weak to strong by IC50 [1], led by results:

Row | IC50 [1] [nM] | IC50 [2] [nM] | SMILES
17 | 13 | 200 | CC(C)C(C)(c1ccc(-c2cnc(N)nc2)cc1)c1noc(NCC2CCOCC2)n1 (centres unmarked) [Example 201, 5-[4-(1,2-Dimethyl-1-{5-[(tetrahydro-pyran-4-ylmethyl)-amino]-[1,2,4]oxadiazol-3-yl}-propyl)-phenyl]-pyrimidin-2-ylamine]
18 | 12 | 230 | CC(C)C(C)(c1ccc(-c2cnc(N)nc2)cc1)c1noc(N2CCN(CC(C)(C)O)CC2)n1 (centres unmarked) [Example 211, 1-[4-(3-{1-[4-(2-Amino-pyrimidin-5-yl)-phenyl]-1,2-dimethyl-propyl}-[1,2,4]oxadiazol-5-yl)-piperazin-1-yl]-2-methyl-propan-2-ol]
19 | 12 | 86 | CC(C)C(C)(c1ccc(-c2cnc(N)nc2)cc1)c1noc(N2CCC(CCO)CC2)n1 (centres unmarked) [Example 212, 2-[1-(3-{1-[4-(2-Amino-pyrimidin-5-yl)-phenyl]-1,2-dimethyl-propyl}-[1,2,4]oxadiazol-5-yl)-piperidin-4-yl]-ethanol]
20 | 12 | 450 | C[C@](c1ccc(-c2cnc(N)cn2)cc1)(c1noc(-c2cnc(N3CCNCC3)cn2)n1)C1CC1 [Example 214, 5-(4-{(S)-1-Cyclopropyl-1-[5-(3,4,5,6-tetrahydro-2H-[1,2′]bipyrazinyl-5′-yl)-[1,2,4]oxadiazol-3-yl]-ethyl}-phenyl)-pyrazin-2-ylamine]
21 | 8.5 | 210 | CO[C@@H]1CCN(C(=O)Cn2cc(-c3nc([C@@](C)(c4ccc(-c5cnc(N)nc5)cc4)C4CC4)no3)cn2)C1 [Example 220, 2-[4-(3-{(R)-1-[4-(2-Amino-pyrimidin-5-yl)-phenyl]-1-cyclopropyl-ethyl}-[1,2,4]oxadiazol-5-yl)-pyrazol-1-yl]-1-((R)-3-methoxy-pyrrolidin-1-yl)-ethanone]
22 | 8.2 | 100 | CC(C)C(C)(c1ccc(-c2cnc(N)nc2)cc1)c1noc(N2CCC(CO)CC2)n1 (centres unmarked) [Example 209, [1-(3-{1-[4-(2-Amino-pyrimidin-5-yl)-phenyl]-1,2-dimethyl-propyl}-[1,2,4]oxadiazol-5-yl)-piperidin-4-yl]-methanol]
23 | 7.5 | 280 | CC(C)C(C)(c1ccc(-c2cnc(N)nc2)cc1)c1noc(N2CCC(C(C)(C)O)CC2)n1 (centres unmarked) [Example 198, 2-[1-(3-{1-[4-(2-Amino-pyrimidin-5-yl)-phenyl]-1,2-dimethyl-propyl}-[1,2,4]oxadiazol-5-yl)-piperidin-4-yl]-prop an-2-ol]
24 | 6.2 | 150 | CO[C@H]1CCN(C(=O)Cn2cc(-c3nc([C@@](C)(c4ccc(-c5cnc(N)nc5)cc4)C4CC4)no3)cn2)C1 [Example 221, 2-[4-(3-{(R)-1-[4-(2-Amino-pyrimidin-5-yl)-phenyl]-1-cyclopropyl-ethyl}-[1,2,4]oxadiazol-5-yl)-pyrazol-1-yl]-1-((S)-3-methoxy-pyrrolidin-1-yl)-ethanone]
25 | 4.4 | 190 | C[C@@](c1ccc(-c2ccc(N)nc2)cc1)(c1noc(-c2cnc(N3CCNCC3)cn2)n1)C1CC1 [Example 210, 5-(4-{(R)-1-Cyclopropyl-1-[5-(3,4,5,6-tetrahydro-2H-[1,2′]bipyrazinyl-5′-yl)-[1,2,4]oxadiazol-3-yl]-ethyl}-phenyl)-pyridin-2-ylamine]
26 | 3.8 | 160 | CNC(=O)Cn1cc(-c2nc([C@@](C)(c3ccc(-c4cnc(N)nc4)cc3)C3CC3)no2)cn1 [Example 230, 2-[4-(3-{(R)-1-[4-(2-Amino-pyrimidin-5-yl)-phenyl]-1-cyclopropyl-ethyl}-[1,2,4]oxadiazol-5-yl)-pyrazol-1-yl]-N-methyl-acetamide]
27 | 3.6 | 28 | C[C@@](c1ccc(-c2cnc(N)nc2)cc1)(c1noc(-c2cnn(CCN3CCCC3)c2)n1)C1CC1 [Example 215, 5-[4-((R)-1-Cyclopropyl-1-{5-[1-(2-pyrrolidin-1-yl-ethyl)-1H-pyrazol-4-yl]-[1,2,4]oxadiazol-3-yl}-ethyl)-phenyl]-pyrimidin-2-ylamine]
28 | 2 | 30 | CNc1ncc(-c2ccc([C@](C)(c3noc(-c4cnn(CC(=O)N(C)C)c4)n3)C3CC3)cc2)cn1 [Example 226, 2-[4-(3-{(R)-1-Cyclopropyl-1-[4-(2-methylamino-pyrimidin-5-yl)-phenyl]-ethyl}-[1,2,4]oxadiazol-5-yl)-pyrazol-1-yl]-N,N-dimethyl-acetamide]

Source: US8658661B2, “Oxadiazole inhibitors of leukotriene production” (Boehringer Ingelheim International GmbH, priority 2010, dated 2014)
